Values belong to the compound of their own block, whether it stands above or below them.
Columns and labels:
[1] = tested on: B08 (DNA, aptamer) AGCCTCGTCTGTTCTCCCGGCGCATGATCATTCGGTGGGTAAGGTGGTGGTAACGTTGGGGAAGACAAGCAGACGT; assay: SYBR Green I displacement fluorescence; conditions: 137 mM NaCl, 2.7 mM KCl, 10 mM Na2HPO4, 2 mM KH2PO4, pH 7.4, tracer SYBR Green I
[2] = tested on: A08 minimer (DNA, aptamer) GGCAGTGTGGGCGAATCTATGCGTACCGTTCGATATCGTG; assay: SYBR Green I displacement fluorescence; conditions: 137 mM NaCl, 2.7 mM KCl, 10 mM Na2HPO4, 2 mM KH2PO4, pH 7.4, tracer SYBR Green I
[3] = tested on: A08 (DNA, aptamer) AGCCTCGTCTGTTCTCCCGGCAGTGTGGGCGAATCTATGCGTACCGTTCGATATCGTGGGGAAGACAAGCAGACGT; assay: SYBR Green I displacement fluorescence; conditions: 137 mM NaCl, 2.7 mM KCl, 10 mM Na2HPO4, 2 mM KH2PO4, pH 7.4, tracer SYBR Green I
[4] = tested on: B08 (DNA, aptamer) AGCCTCGTCTGTTCTCCCGGCGCATGATCATTCGGTGGGTAAGGTGGTGGTAACGTTGGGGAAGACAAGCAGACGT; assay: fluorescence enhancement at 520 nm; conditions: 137 mM NaCl, 2.7 mM KCl; 10 mM Na2HPO4, 2 mM KH2PO4, pH 7.4; excitation 497 nm
[5] = tested on: A08 minimer (DNA, aptamer) GGCAGTGTGGGCGAATCTATGCGTACCGTTCGATATCGTG; assay: fluorescence enhancement at 520 nm; conditions: 137 mM NaCl, 2.7 mM KCl; 10 mM Na2HPO4, 2 mM KH2PO4, pH 7.4; excitation 497 nm
[6] = tested on: Non-specific control (DNA, single strand) AGCACGTTGGTAGGTCGGTTTGGGTTTCGTGC; assay: fluorescence enhancement at 520 nm; conditions: 137 mM NaCl, 2.7 mM KCl; 10 mM Na2HPO4, 2 mM KH2PO4, pH 7.4; excitation 497 nm
[7] = tested on: A08 (DNA, aptamer) AGCCTCGTCTGTTCTCCCGGCAGTGTGGGCGAATCTATGCGTACCGTTCGATATCGTGGGGAAGACAAGCAGACGT; assay: fluorescence enhancement at 520 nm; conditions: 137 mM NaCl, 2.7 mM KCl; 10 mM Na2HPO4, 2 mM KH2PO4, pH 7.4; excitation 497 nm
[8] = tested on: B08 (DNA, aptamer) AGCCTCGTCTGTTCTCCCGGCGCATGATCATTCGGTGGGTAAGGTGGTGGTAACGTTGGGGAAGACAAGCAGACGT; assay: magnetic beads isocratic elution, fluorescence; conditions: 137 mM NaCl, 2.7 mM KCl; immobilised compound (amine Dynabeads, EDC); 10 mM Na2HPO4, 2 mM KH2PO4, pH 7.4; apparent
[9] = tested on: Non-specific control (DNA, single strand) AGCACGTTGGTAGGTCGGTTTGGGTTTCGTGC; assay: SYBR Green I displacement fluorescence; conditions: 137 mM NaCl, 2.7 mM KCl; 10 mM Na2HPO4, 2 mM KH2PO4, pH 7.4; tracer SYBR Green I; highest OTA about 0.18 µM
[10] = tested on: A08 (DNA, aptamer) AGCCTCGTCTGTTCTCCCGGCAGTGTGGGCGAATCTATGCGTACCGTTCGATATCGTGGGGAAGACAAGCAGACGT; assay: magnetic beads isocratic elution, fluorescence; conditions: 137 mM NaCl, 2.7 mM KCl; immobilised compound (amine Dynabeads, EDC); 10 mM Na2HPO4, 2 mM KH2PO4, pH 7.4; apparent
[11] = tested on: 1.12.2 (DNA, aptamer) GATCGGGTGTGGGTGGCGTAAAGGGAGCATCGGACA; assay: magnetic beads isocratic elution, fluorescence; conditions: 137 mM NaCl, 2.7 mM KCl; immobilised compound (amine Dynabeads, EDC); 10 mM Na2HPO4, 2 mM KH2PO4, pH 7.4; apparent
[12] = compared at 30 and 100 nM, highest about 0.18 µM

binding ([1]; OTA signal 2–3 fold larger): weak
binding [2, 12]: no
binding [3, 12]: no
Structure (SMILES): CC(=O)CC(c1ccccc1)c1c(O)c2ccccc2oc1=O (stereo not shown)

binding [4]: yes
binding [5]: yes
binding [6]: yes
binding [7]: yes
Structure (SMILES): CCCN(CCCN(C)C)c1cc(C=C2Sc3ccccc3N2C)c2ccccc2[n+]1-c1ccccc1

Structure (SMILES): C[C@@H]1Cc2c(Cl)cc(C(=O)N[C@@H](Cc3ccccc3)C(=O)O)c(O)c2C(=O)O1
binding [1]: yes
KD [8]: 0.11 ± 0.05 µM
binding [9]: no
binding ([2]; linear signal to 100 nM OTA): yes
KD [10]: 0.29 ± 0.15 µM
KD [11]: 0.37 ± 0.25 µM

binding ([1]; OTA signal 2–3 fold larger): weak
binding ([2]; OTA signal 6–10 fold larger): weak
binding ([3]; OTA signal 6–10 fold larger): weak
Structure (SMILES): C[C@@H]1Cc2ccc(C(=O)N[C@@H](Cc3ccccc3)C(=O)O)c(O)c2C(=O)O1
